Assay [1] has as its system IGROV-1 human ovarian adenocarcinoma cell line. Briefly: cells. The note with it: Homo sapiens, IGROV-1, 72 h. The method, then: (§1) a. […] Briefly, cells were harvested and seeded in 96 well microtiter plates at a density of 5,000 cells in 150 μL of culture medium and incubated for 24 hours in drug-free medium before treatment with vehicle alone or test compounds for 72 h.
(§2) The cytotoxic effect was measured by the MTT reduction assay, in which 3-(4,5-Dimethylthiazol-2-yl)-2,5-diphenyltetrazolium bromide, a tetrazole, which is reduced to purple formazan in the mitochondria of living cells, was used. MTT (50 μL of 1 mg/mL stock solution) was added to the wells and incubated for 8 hours at 37° C. until formazan crystals were formed. After gently removing the culture medium, DMSO was added to dissolve the insoluble purple formazan product into a colored solution. […] Results were expressed as percentage of control cell growth.
(§3) b. In a second set of assays, A549 human tumor cells were incubated with PM01183 in combination with each of the agents mentioned above.
(§4) As a visual aid, response values were plotted on a scatter plot with dose ratios given on the x-axis and % response values on the y-axis. […] In cases where response values at the two endpoints were approximately equivalent, points lying above or below this predicted line of additivity could be interpreted as representing antagonistic or synergistic drug interaction, respectively.
(§5) Additional serial dilutions were prepared in serum-free culture medium to achieve a final 4× concentration. Aliquots of 50 μL of each diluted compound were added per well.
IGROV-1 was the human ovarian adenocarcinoma cell line selected for this assay.

Assay [2] has as its system MDA-MB-231 human breast adenocarcinoma cell line. Briefly: cells. The conditions noted are these: Homo sapiens, MDA-MB-231, 72 h. The method, then: as §1, §2, §3, §4, §5
The test system of assay [3] is A549 human lung carcinoma cell line. Briefly: MTT cytotoxicity assay in A549 cells: IC50 of single agents and combinations with PM01183. It is filed as cell-based. The note with it: Homo sapiens. On the procedure:
as §5
A549 was the human lung carcinoma cell line selected for this assay.
as §1, §2, §3, §4
(In general: Tetrazolium assays rely on reduction of a dye to a coloured formazan, in cell work by metabolically active cells.)

Assay [4] relates to RXF-393 human kidney carcinoma cell line. Briefly: cells. The note with it: Homo sapiens, RXF 393, 72 h. The method, then:
as §1, §2, §3, §4, §5

Assay [5] relates to A673 human rhabdomyosarcoma cell line. Description: cells. The conditions noted are these: Homo sapiens, A673, 72 h. On the procedure:
as §1, §2, §3, §4, §5
A673 was the human rhabdomyosarcoma cell line selected for this assay.

Assay [6] deals with HT-29 human colon adenocarcinoma cell line. Briefly: cells. The conditions noted are these: Homo sapiens, HT-29, 72 h. The method, then:
as §1, §2, §3, §4, §5
HT-29 was the human colon adenocarcinoma cell line selected for this assay.

Assay [7] has as its system HepG2 human hepatocellular liver carcinoma cell line. Description: MTT cytotoxicity assay in HepG2 cells: IC50 of single agents and combinations with PM01183. The note with it: Homo sapiens, HepG2, 72 h. The assay is classed as cell-based. On the procedure:
as §1, §2, §3, §4, §5
HepG2 was the human hepatocellular liver carcinoma cell line selected for this assay.

The test system of assay [8] is HGC-27 human gastric carcinoma cell line. Description: cells. The conditions noted are these: Homo sapiens, HGC-27, 72 h. On the procedure: as §1, §2, §3, §4, §5
HGC-27 was the human gastric carcinoma cell line selected for this assay.

Assay [9] relates to PC-3 human prostate cancer cell line. Briefly: cells. The conditions noted are these: Homo sapiens, PC-3, 72 h. The method, then:
as §1, §2, §3, §4, §5
PC-3 was the human prostate adenocarcinome cell line selected for this assay.

In a further assay the test system is A2780 tumors. Briefly: Human ovarian tumor xenografts (A2780) in athymic nude mice, tumor volume % T/C. It is filed as in vivo. The method, then: Female athymic nude mice (Harlan Laboratories Models, S.L. (Barcelona, Spain) were utilized for all experiments. Animals were housed in individually ventilated cages, up to ten per cage in a 12-hour light-dark cycle at 21-23° C. and 40-60% humidity. The mice were allowed free access to irradiated standard rodent diet and sterilized water. Animals were acclimated for at least 5 days prior to tumor implantation with a tumor cell suspension.
The formula to calculate volume for a prolate ellipsoid was used to estimate tumor volume (mm^3) from 2-dimensional tumor measurements: Tumor volume (mm^3)=[L×W^2]÷2, where L is the length and it is the longest diameter in mm, and W is the width and it is the shortest diameter in mm of a tumor. Assuming unit density, volume was converted to weight (i.e., 1 mm^3=1 mg). Tumor volume and animal body weights were measured 2-3 times per week starting form the first day of treatment (Day 0).
PM01183 was provided in the form of vials of lyophilized PM01183 cake which was reconstituted with water for infusion to a concentration of 0.2 mg/mL. The PM01183 stock solution was further diluted in 5% glucose solution for injection to the dosing formulation concentrations. […] Vinorelbine was provided as a solution prepared by diluting the product with 0.9% saline solution.
Dose level groups were administered either as single agents or in combination.
Comparison of the median tumor volume in the treatment groups (T) to the median tumor volume in the control group (T/C×100%) was used for evaluation of the antitumor efficacy.
Day 9 for PM01183 and vinorelbine study) using the median-effect principle (Chou T. C. Pharmacol. Rev.

[10] abbreviates: paclitaxel 6.25 mg/kg iv days 0,7.
Setting [11] is: paclitaxel 12.5 mg/kg iv days 0,7.
The mark [12] stands for this setting: paclitaxel 18.75 mg/kg iv days 0,7.
The mark [13] stands for this setting: paclitaxel 25 mg/kg iv days 0,7.

The structures appear in SMILES notation. pIC50: −log10 of the molar value. Where two headings read alike, the source gives them in different places.

In the case of `O=NN(CCCl)C(=O)NCCCl` [Carmustine, carmustine], the negative logarithm of the IC50 (pIC50) is 3.15 in assay [1]; 3.05 in assay [2]; 3.00 in [3] (A549, 72 hours drug exposure, MTT, read-out: IC50).
For `O=P1(N(CCCl)CCCl)NCCCO1` (stereo not drawn) [Cyclophosphamide, cyclophosphamide], the negative logarithm of the IC50 (pIC50) in assay [1] is 3.00; in [2], 3.00; in [4], 3.00; in assay [5], 3.00; in [3] (A549, 72 h) it was 3.00; in [6] it was 3.00. In addition, the pIC50 in [7] and in assay [8] was 3.00 in each case.
For the molecule `CC(C)C(=O)Nc1ccc([N+](=O)[O-])c(C(F)(F)F)c1` [Flutamide, flutamide], the negative logarithm of the IC50 (pIC50) in [9] was 4.31.
On to `CC(=O)O[C@H]1C(=O)[C@@]2(C)[C@H]([C@H](OC(=O)c3ccccc3)[C@]3(O)C[C@H](OC(=O)[C@H](O)[C@@H](NC(=O)c4ccccc4)c4ccccc4)C(C)=C1C3(C)C)[C@]1(OC(C)=O)CO[C@@H]1C[C@@H]2O` [Paclitaxel, paclitaxel], for which the “% T/C on day 0” value with A2780 tumors (setting [10]) turned out to be 94.3%; in the assay with A2780 tumors (setting [11]), 96.2%; in the assay on A2780 tumors (setting [12]) it was 95.0%; in the assay on A2780 tumors (setting [13]), 95.3%. Besides, the “% T/C on day 3” value in the assay with A2780 tumors (setting [10]) came to 60.2%; with A2780 tumors (setting [11]), 62.5%; in the assay with A2780 tumors (setting [12]), 60.4%; in the assay on A2780 tumors (setting [13]), 49.3%. For the same molecule, the results for the “% T/C on day 5” value in the assay on A2780 tumors (setting [10]) and in the assay with A2780 tumors (setting [11]) were 79.7% and 73.9%, respectively. Also, the “% T/C on day 7” value turned out to be 81.3% in the assay with A2780 tumors (setting [10]), 62.5% in the assay with A2780 tumors (setting [11]), 41.5% in the assay on A2780 tumors (setting [12]) and 34.0% in the assay on A2780 tumors (setting [13]). For the same molecule, the “% T/C on day 10” value in the assay on A2780 tumors (setting [10]) was 59.2%; with A2780 tumors (setting [11]), 50.8%; in the assay on A2780 tumors (setting [12]), 31.1%; in the assay on A2780 tumors (setting [13]) it was 19.8%. In addition, the pIC50 was 7.02 in assay [1]; 8.07 in [2]; 7.40 in [3] (A549, 72 h); 7.05 in assay [9]; 7.24 in assay [7]; 8.30 in [8].

As a reminder, the pIC50 is the negative decadic logarithm of the IC50, by convention in mol/L.

The values are drawn from patent US11590129B2, “Combination therapy with an antitumor alkaloid” (PHARMA MAR, S.A., priority 2010, dated 2023).
